EPA's ToxRefDB 2

Experiments:
rat [1] = settings: Multigenerational reproductive toxicity study, sprague dawley, Oral, Feed, dose end: 2 generation
dog [2] = settings: Chronic toxicity, beagle, Oral, Feed, dose end: 12 month
rabbit [3] = settings: Prenatal developmental toxicity study; new zealand white; Oral; Gavage/Intubation; dose end: 19 GD; group: maternal; reproductive / reproductive performance / postimplantation loss / postimplantation loss + reproductive / reproductive performance / …
dog [4] = settings: Subchronic oral toxicity in nonrodent, beagle, Feed, dose end: 90 day, group: systemic
rat [5] = settings: Combined chronic toxicity/carcinogenicity, fischer, Oral, Feed, dose end: 2 year, group: systemic
mouse [6] = settings: Carcinogenicity, cd1, Oral, Feed, dose end: 18 month, group: systemic
rat [7] = settings: Multigenerational reproductive toxicity study, other, Oral, Feed, dose end: 3 generation
rat [8] = settings: Sub-acute repeat dose toxicity, other, Oral, Feed, dose end: 28 day, group: systemic
mouse [9] = settings: Combined chronic toxicity/carcinogenicity; other; Oral; Feed; dose end: 24 month; group: systemic; systemic / organ weight / thyroid gland / absolute + systemic / organ weight / thyroid gland / relative to body weight + systemic / organ …
rat [10] = settings: Combined chronic toxicity/carcinogenicity, other, Oral, Feed, dose end: 27 month, group: systemic
rat [11] = settings: Combined chronic toxicity/carcinogenicity, other, Oral, Feed, dose end: 27 month, group: systemic; remark: listed apart in the source
rat [12] = settings: Prenatal developmental toxicity study, other, Oral, Gavage/Intubation, dose end: 15 GD
rabbit [13] = settings: Sub-acute dermal toxicity, new zealand white, Topical, dose end: 28 day, group: systemic, systemic / in life observation / body weight / body weight + systemic / in life observation / food consumption / food consumption + systemic…
[14] = group: offspring, systemic / in life observation / body weight / offspring (pup) weight
[15] = group: offspring, systemic / in life observation / body weight / offspring (pup) weight + developmental / offspring survival late / lactation index / …
[16] = group: parental, systemic / in life observation / food consumption / food consumption + systemic / in life observation / body weight / body weight + systemic…
[17] = group: reproductive, reproductive / offspring survival early / birth index / live birth index
[18] = group: reproductive, reproductive / reproductive performance / estrous cycle / periodicity
[19] = group: systemic, systemic / in life observation / body weight / body weight + systemic / in life observation / body weight / body weight gain + systemic / in…
[20] = group: systemic, systemic / pathology microscopic / uterus / estrus
[21] = systemic / in life observation / body weight / body weight gain
[22] = systemic / in life observation / body weight / body weight gain + systemic / in life observation / food consumption / food consumption
[23] = systemic / pathology gross / stomach / discolored + systemic / pathology gross / stomach / foci + systemic / pathology gross / stomach / …
[24] = systemic / organ weight / liver / nos + systemic / pathology microscopic / liver / eosinophilic focus + systemic / pathology microscopic / …
[25] = group: parental, systemic / in life observation / body weight / body weight + systemic / organ weight / brain / relative to body weight
[26] = group: parental, systemic / in life observation / body weight / body weight + systemic / pathology gross / full gross necropsy / hyperemia + systemic / …
[27] = group: reproductive, reproductive / reproductive performance / fertility / fertility + reproductive / reproductive performance / mating / mating + reproductive…
[28] = group: reproductive, reproductive / reproductive performance / mating / mating + reproductive / reproductive performance / pregnancy / pregnancy
[29] = systemic / organ weight / liver / absolute + systemic / organ weight / liver / relative to brain weight
[30] = systemic / organ weight / liver / absolute + systemic / organ weight / liver / relative to brain weight + systemic / organ weight / liver / …
[31] = systemic / in life observation / body weight / body weight + systemic / in life observation / food consumption / food consumption
[32] = systemic / in life observation / body weight / body weight + systemic / in life observation / food consumption / food consumption + systemic…
[33] = systemic / in life observation / body weight / body weight
[34] = systemic / in life observation / body weight / body weight + systemic / pathology microscopic / testes / interstitial cell tumor benign + …
[35] = group: developmental, developmental / developmental malformation / bone / unossified
[36] = group: maternal, reproductive / reproductive performance / aborted / aborted + systemic / in life observation / body weight / body weight gain + systemic / …

CC(C)N(C(=O)CCl)c1ccccc1 [Propachlor] was tested, and the LEL (rat [1]; [14]) was 69.6 mg/kg/day, the LOAEL (rat [1]; [14]) was 69.6 mg/kg/day and the NEL (rat [1]; [15]) was 7.1 mg/kg/day. For the same compound, the NOAEL (rat [1]; [15]) was 7.1 mg/kg/day, the LEL (rat [1]; [16]) was 69.6 mg/kg/day and the LOAEL (rat [1]; [16]) was 69.6 mg/kg/day. The NEL (rat [1]; [16]) was 7.1 mg/kg/day, the NOAEL (rat [1]; [16]) was 7.1 mg/kg/day and the LEL (rat [1]; [17]) was 141 mg/kg/day. The LOAEL (rat [1]; [17]) was > 141 mg/kg/day, the NOAEL (rat [1]; [17]) was ≥ 141 mg/kg/day and the LEL (dog [2]; [18]) was 0.625 mg/kg/day. The LOAEL (dog [2]; [18]) was > 25 mg/kg/day, the NEL (dog [2]; [18]) was < 0.625 mg/kg/day and the NOAEL (dog [2]; [18]) was ≥ 25 mg/kg/day. It also gave an LOAEL (dog [2]; [19]) of 25 mg/kg/day, an NOAEL (dog [2]; [19]) of 6.25 mg/kg/day and an LEL (dog [2]; [20]) of 0.625 mg/kg/day. The NEL (dog [2]; [20]) was < 0.625 mg/kg/day, the LEL (rabbit [3]) was 50 mg/kg/day and the LOAEL (rabbit [3]) was 50 mg/kg/day. For the same compound, the NEL (rabbit [3]) was 5 mg/kg/day, the NOAEL (rabbit [3]) was 5 mg/kg/day and the LEL (dog [4]; [21]) was 2.5 mg/kg/day. The NEL (dog [4]; [21]) was < 2.5 mg/kg/day, the LOAEL (dog [4]; [22]) was > 37.5 mg/kg/day and the NOAEL (dog [4]; [22]) was ≥ 37.5 mg/kg/day. For the same compound, the LEL (rat [5]; systemic / clinical chemistry / aspartate aminotransferase (ast/sgot) / aspartate aminotransferase (ast/sgot)) was 16.1 mg/kg/day, the LOAEL (rat [5]; [23]) was 125 mg/kg/day and the NEL (rat [5]; [23]) was 5.4 mg/kg/day. It also gave an NOAEL (rat [5]; [23]) of 53.6 mg/kg/day, an LEL (mouse [6]; systemic / organ weight / liver / nos) of 75 mg/kg/day and an NEL (mouse [6]; systemic / organ weight / liver / nos + systemic / organ weight / kidney / nos + systemic / pathology microscopic / liver / hypertrophy) of 14.6 mg/kg/day. The LOAEL (mouse [6]; [24]) was 223 mg/kg/day and the NOAEL (mouse [6]; [24]) was 75 mg/kg/day.

For CCNc1nc(Cl)nc(NC(C)(C)C)n1 [Terbuthylazine], the LEL (rat [7]; [25]) was 2.5 mg/kg/day, the NEL (rat [7]; [25]) was < 2.5 mg/kg/day and the LOAEL (rat [7]; [26]) was > 5 mg/kg/day. For the same compound, the NOAEL (rat [7]; [26]) was ≥ 5 mg/kg/day, the LOAEL (rat [7]; [27]) was > 5 mg/kg/day and the NOAEL (rat [7]; [27]) was ≥ 5 mg/kg/day. For the same compound, the LEL (rat [7]; [28]) was 2.5 mg/kg/day, the NEL (rat [7]; [28]) was < 2.5 mg/kg/day and the LOAEL (rat [8]; [29]) was 2.28 mg/kg/day. For the same compound, the NOAEL (rat [8]; [29]) was < 2.28 mg/kg/day, the LEL (rat [8]; [30]) was 2.28 mg/kg/day and the NEL (rat [8]; [30]) was < 2.28 mg/kg/day. For the same compound, the LEL (mouse [9]) was 3.22 mg/kg/day, the LOAEL (mouse [9]) was 3.22 mg/kg/day and the NEL (mouse [9]) was < 3.22 mg/kg/day. For the same compound, the NOAEL (mouse [9]) was < 3.22 mg/kg/day, the NEL (rat [10]; [31]) was 0.36 mg/kg/day and the NOAEL (rat [10]; [31]) was 0.36 mg/kg/day. For the same compound, the LEL (rat [10]; [32]) was 1.6 mg/kg/day, the LOAEL (rat [10]; [32]) was 1.6 mg/kg/day and the LOAEL (rat [11]; [33]) was 1.24 mg/kg/day. The NOAEL (rat [11]; [33]) was < 1.24 mg/kg/day, the LEL (rat [11]; [34]) was 1.24 mg/kg/day and the NEL (rat [11]; [34]) was < 1.24 mg/kg/day. For the same compound, the LEL (rat [12]; [35]) was 5 mg/kg/day, the LOAEL (rat [12]; [35]) was 5 mg/kg/day and the NEL (rat [12]; [35]) was 1 mg/kg/day. For the same compound, the NOAEL (rat [12]; [35]) was 1 mg/kg/day, the LEL (rat [12]; [36]) was 30 mg/kg/day and the LOAEL (rat [12]; [36]) was 30 mg/kg/day. It also gave an NEL (rat [12]; [36]) of 5 mg/kg/day, an NOAEL (rat [12]; [36]) of 5 mg/kg/day and an LEL (rabbit [13]) of 1 mg/kg/day. The LOAEL (rabbit [13]) was 1 mg/kg/day, the NEL (rabbit [13]) was < 1 mg/kg/day and the NOAEL (rabbit [13]) was < 1 mg/kg/day.
